Biological target: T1, S-nitrosoglutathione reductase (GSNOR) (Homo sapiens, UniProt P11766)
T1 construct: made in house; host or cells: E. coli
Experiment: GSNOR assay (inhibition of GSNOR activity, NADH absorbance at 340 nm)
Type: biochemical
Conditions: GSNOR inhibitor activity, Tables 1-6; read-out: IC50 range
Method: Various compounds were tested in vitro for their ability to inhibit GSNOR activity.
GSNOR expression and purification is described in Biochemistry 2000, 39, 10720-10729.
Pre-cultures were grown from stabs of a GSNOR glycerol stock in 2XYT media containing 100 ug/ml ampicillin after an overnight incubation at 37° C. […] GSNOR expression was induced with 0.1% arabinose in an overnight incubation at 20° C.
E. coli cell paste was lysed by nitrogen cavitation and the clarified lysate purified by Ni affinity chromatography on an AKTA FPLC (Amersham Pharmacia). The column was eluted in 20 mM Tris pH 8.0/250 mM NaCl with a 0-500 mM imidazole gradient. Eluted GSNOR fractions containing the Smt-GSNOR fusion were digested overnight with Ulp-1 at 4° C. to remove the affinity tag then re-run on the Ni column under the same conditions. GSNOR was recovered in the flowthrough fraction and for crystallography is further purified by Q-Sepharose and Heparin flowthrough chromatography in 20 mM Tris pH 8.0, 1 mM DTT, 10 uM ZnSO4.
GSNOR assay: GSNO and enzyme/NADH Solutions are made up fresh each day. The solutions are filtered and allowed to warm to room temperature. GSNO solution: 100 mM NaPO4 (pH 7.4), 0.480 mM GSNO. 396 μL of GSNO Solution is added to a cuvette followed by 8 μL of test compound in DMSO (or DMSO only for full reaction control) and mixed with the pipette tip. Compounds to be tested are made up at a stock concentration of 10 mM in 100% DMSO. 2 fold serial dilutions are done in 100% DMSO. 8 μL of each dilution are added to an assay so that the final concentration of DMSO in the assay is 1%. The concentrations of compounds tested range from 100 to 0.003 μM. Enzyme/NADH solution: 100 mM NaPO4 (pH 7.4), 0.600 mM NADH, 1.0 μg/mL GSNO Reductase. 396 μL of the Enzyme/NADH solution is added to the cuvette to start the reaction. The cuvette is placed in the Cary 3E UV/Visible Spectrophotometer and the change in 340 nm absorbance/min at 25° C. is recorded for 3 minutes. The assays are done in triplicate for each compound concentration. IC50's for each compound are calculated using the standard curve analysis in the Enzyme Kinetics Module of SigmaPlot.
Final assay conditions: 100 mM NaPO4, pH 7.4, 0.240 mM GSNO, 0.300 mM NADH, 0.5 μg/mL GSNO Reductase, and 1% DMSO. Final volume: 800 μL/cuvette.

T1 sequence (P11766 whole entry): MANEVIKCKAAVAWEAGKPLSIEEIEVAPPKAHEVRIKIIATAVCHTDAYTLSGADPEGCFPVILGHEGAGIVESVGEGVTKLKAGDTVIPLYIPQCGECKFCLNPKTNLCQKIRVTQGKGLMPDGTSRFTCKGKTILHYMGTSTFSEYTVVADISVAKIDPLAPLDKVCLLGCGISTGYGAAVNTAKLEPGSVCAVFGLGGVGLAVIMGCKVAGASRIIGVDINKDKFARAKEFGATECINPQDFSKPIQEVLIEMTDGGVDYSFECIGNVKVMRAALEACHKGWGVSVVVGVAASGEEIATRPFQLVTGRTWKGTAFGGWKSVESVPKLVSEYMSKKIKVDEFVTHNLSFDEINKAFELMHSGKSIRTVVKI

First: O=C(O)c1ccc(Oc2coc3cc(O)ccc3c2=O)cc1 [Compound V-12, 4-(7-hydroxy-4-oxo-4H-chromen-3-yloxy)benzoic acid]
Second: Cc1oc2cc(O)ccc2c(=O)c1-c1ccc(C(=O)O)cc1 [IV-5]
The IC50 of the first is higher: 1000 to 10000 nM for the first, 100 to 1000 nM for the second.

Compared with `O=C(O)c1ccc(Oc2c(C(F)(F)F)oc3cc(O)ccc3c2=O)cc1O` [Compound V-13, 2-hydroxy-4-(7-hydroxy-4-oxo-2-(trifluoromethyl)-4H-chromen-3-yloxy)benzoic acid], `O=c1c(Oc2ccc([N+](=O)[O-])c(O)c2)c(C(F)(F)F)oc2cc(O)ccc12` [Compound V-16, 7-hydroxy-3-(3-hydroxy-4-nitrophenoxy)-2-(trifluoromethyl)-4H-chromen-4-one] is lower in IC50: 100 to 1000 nM for the first, < 100 nM for the second. The second is the more potent here.

`CN(c1ccc(C(=O)O)cc1)c1c(C(F)(F)F)oc2cc(O)ccc2c1=O` [Compound V-14, 4-((7-hydroxy-4-oxo-2-(trifluoromethyl)-4H-chromen-3-yl)(methyl)amino)benzoic acid] and `O=C(O)c1ccc(Nc2c(C(F)(F)F)oc3cc(O)ccc3c2=O)cc1` [Compound V-15, 4-(7-hydroxy-4-oxo-2-(trifluoromethyl)-4H-chromen-3-ylamino)benzoic acid] fall in the same range of IC50: 1000 to 10000 nM for the first, 1000 to 10000 nM for the second.

`O=c1c(Oc2ccc(O)c([N+](=O)[O-])c2)c(C(F)(F)F)oc2cc(O)ccc12` [Compound V-17, 7-hydroxy-3-(4-hydroxy-3-nitrophenoxy)-2-(trifluoromethyl)-4H-chromen-4-one] and `O=[N+]([O-])c1cc(-c2ccc3cc(O)ccc3c2)ccc1O` [III-36, 6-(4-hydroxy-3-nitrophenyl)naphthalen-2-ol] fall in the same range of IC50: 100 to 1000 nM for the first, 100 to 1000 nM for the second.

`O=C(O)c1ccc(-c2ncc3cc(O)ccc3n2)cc1` [II-1] and `O=C(O)c1ccc(-c2ncc3cc(O)ccc3n2)c(Cl)c1` [II-3] cannot be ordered by IC50: < 100 nM for the first, < 100 nM for the second.

`Cc1cc(C(=O)O)ccc1-c1ncc2cc(O)ccc2n1` [II-4] and `O=C(O)c1ccc(-c2ncc3cc(O)ccc3n2)c(F)c1` [II-6] cannot be ordered by IC50: < 100 nM for the first, < 100 nM for the second.

`COc1cc(C(=O)O)ccc1-c1ncc2cc(O)ccc2n1` [II-5] and `COc1cc(C(=O)O)ccc1-c1ccc2cc(O)ccc2c1` [III-3] cannot be ordered by IC50: < 100 nM for the first, < 100 nM for the second.

First: O=C(O)C1CCN(c2ncc3cc(O)ccc3n2)CC1 [II-7]
Second: O=C(O)C1CCN(c2nc3ccc(O)cc3nc2C(F)(F)F)CC1 [II-11]
The IC50 of the first is higher: 1000 to 10000 nM for the first, < 100 nM for the second. The second is the more potent here.

`O=C(O)c1ccc(-c2nc3ccc(O)cc3nc2C(F)(F)F)c(Cl)c1` [II-8] and `O=C(O)c1ccc(-c2nc3ccc(O)cc3nc2C(F)(F)F)c(F)c1` [II-26, 3-fluoro-4-(6-hydroxy-3-(trifluoromethyl)quinoxalin-2-yl)benzoic acid] cannot be ordered by IC50: < 100 nM for the first, < 100 nM for the second.

Compared with `Oc1ccc2nc(-c3ccc(-c4nn[nH]n4)cc3)c(C(F)(F)F)nc2c1` [II-10], `Oc1ccc2nc(C(F)(F)F)c(-c3ccc(-c4nnn[nH]4)cc3)nc2c1` [II-16] is higher in IC50: < 100 nM for the first, 100 to 1000 nM for the second.

`O=C(O)C1CC=C(c2nc3ccc(O)cc3nc2C(F)(F)F)CC1` (stereo not shown) [II-12] and `O=C(O)[C@H]1CC[C@H](c2nc3ccc(O)cc3nc2C(F)(F)F)CC1` [II-27, (trans)-4-(6-hydroxy-3-(trifluoromethyl)quinoxalin-2-yl)cyclohexanecarboxylic acid] cannot be ordered by IC50: < 100 nM for the first, < 100 nM for the second.

`O=C(O)c1ccc(-c2nnc3cc(O)ccc3n2)c(F)c1` [II-20] and `O=C(O)c1ccc(-c2cc3ccc(O)cc3cn2)c(F)c1` [II-24, 3-fluoro-4-(7-hydroxyisoquinolin-3-yl)benzoic acid] cannot be ordered by IC50: < 100 nM for the first, < 100 nM for the second.

First: Cc1c(-c2ccc(C(=O)O)cc2)ncc2cc(O)ccc12 [II-25, 4-(7-hydroxy-4-methylisoquinolin-3-yl)benzoic acid]
Second: O=C(O)c1ccc(-c2ccc3cc(O)ccc3c2F)cc1 [III-26, 4-(1-fluoro-6-hydroxynaphthalen-2-yl)benzoic acid]
The IC50 of the first is higher: 100 to 1000 nM for the first, < 100 nM for the second.

First: O=C(O)[C@H]1CC[C@@H](c2nc3ccc(O)cc3nc2C(F)(F)F)CC1 [II-28, (cis)-4-(6-hydroxy-3-(trifluoromethyl)quinoxalin-2-yl)cyclohexanecarboxylic acid]
Second: O=C(O)c1ccc(-c2ccc3cc(O)ccc3c2)c(C(F)(F)F)c1 [III-20, 4-(6-hydroxynaphthalen-2-yl)-3-(trifluoromethyl)benzoic acid]
The IC50 of the first is higher: 1000 to 10000 nM for the first, < 100 nM for the second.

Compared with `O=C(O)c1ccc(-c2ccc3cc(O)ccc3c2)cn1` [III-4], `O=C(O)c1ccc(-c2ccc3cc(O)ccc3c2)nc1` [III-7] is lower in IC50: 1000 to 10000 nM for the first, 100 to 1000 nM for the second. The second is the more potent here.

`CN(C)c1cc(C(=O)O)ccc1-c1ccc2cc(O)ccc2c1` [III-5] and `Cc1cc(C(=O)O)ccc1-c1ccc2cc(O)ccc2c1` [III-37, 4-(6-hydroxynaphthalen-2-yl)-3-methylbenzoic acid] cannot be ordered by IC50: < 100 nM for the first, < 100 nM for the second.

`N#Cc1cc(C(=O)O)ccc1-c1ccc2cc(O)ccc2c1` [III-6] and `O=C(O)c1ccc(-c2cc3ccc(O)cc3cc2Cl)cc1` [III-22, 4-(3-chloro-6-hydroxynaphthalen-2-yl)benzoic acid] cannot be ordered by IC50: < 100 nM for the first, < 100 nM for the second.

`O=C(O)c1cnc(-c2ccc3cc(O)ccc3c2)cn1` [III-8] and `O=C(O)c1cnc(-c2ccc3cc(O)ccc3c2)nc1` [III-9] fall in the same range of IC50: 100 to 1000 nM for the first, 100 to 1000 nM for the second.

Compared with `O=C(O)c1ccc(-c2ccc3cc(O)ccc3c2)c(N2CCOCC2)c1` [III-10], `O=C(O)c1ccc(-c2cc3ccc(O)cc3cc2F)cc1` [III-23, 4-(3-fluoro-6-hydroxynaphthalen-2-yl)benzoic acid] is lower in IC50: 100 to 1000 nM for the first, < 100 nM for the second. The second is the more potent here.

`O=C(O)c1ccc(-c2ccc3cc(O)ccc3c2)nn1` [III-11] and `O=C(O)c1ncc(-c2ccc3cc(O)ccc3c2)cn1` [III-14] fall in the same range of IC50: 1000 to 10000 nM for the first, 1000 to 10000 nM for the second.

`Oc1ccc2cc(-c3ccc(-c4nnn[nH]4)cc3)ccc2c1` [III-18] and `O=C(O)c1ccc(-c2ccc3cc(O)ccc3c2)cc1O` [III-35, 2-hydroxy-4-(6-hydroxynaphthalen-2-yl)benzoic acid] cannot be ordered by IC50: < 100 nM for the first, < 100 nM for the second.

`O=C(O)c1ccc(-c2cc3ccc(O)cc3cc2F)c(Cl)c1` [III-21, 3-chloro-4-(3-fluoro-6-hydroxynaphthalen-2-yl)benzoic acid] and `O=C(O)c1ccc(-c2cc(F)c3cc(O)ccc3c2)c(F)c1` [III-38, 3-fluoro-4-(4-fluoro-6-hydroxynaphthalen-2-yl)benzoic acid] cannot be ordered by IC50: < 100 nM for the first, < 100 nM for the second.

First: COc1c(-c2ccc(C(=O)O)cc2)ccc2cc(O)ccc12 [III-24, 4-(6-hydroxy-1-methoxynaphthalen-2-yl)benzoic acid]
Second: O=C(O)c1ccc(-c2cc3ccc(O)cc3cc2O)cc1 [III-25, 4-(3,6-dihydroxynaphthalen-2-yl)benzoic acid]
The IC50 of the first is lower: < 100 nM for the first, 1000 to 10000 nM for the second.

`Cc1cc2cc(O)ccc2cc1-c1ccc(C(=O)O)cc1` [III-27, 4-(6-hydroxy-3-methylnaphthalen-2-yl)benzoic acid] and `O=C(O)c1ccc(-c2cc(F)c3cc(O)ccc3c2)cc1` [III-39, 4-(4-fluoro-6-hydroxynaphthalen-2-yl)benzoic acid] cannot be ordered by IC50: < 100 nM for the first, < 100 nM for the second.

`N#Cc1c(-c2ccc(C(=O)O)cc2F)ccc2cc(O)ccc12` [III-29] and `O=C(O)c1ccc(-c2ccc3c(F)c(O)ccc3c2)c(F)c1` [III-32] cannot be ordered by IC50: < 100 nM for the first, < 100 nM for the second.

`O=C(O)c1ccc(-c2ccc3c(F)c(O)ccc3c2)c(Cl)c1` [III-30] and `Cc1cc(C(=O)O)ccc1-c1ccc2c(F)c(O)ccc2c1` [III-33] cannot be ordered by IC50: < 100 nM for the first, < 100 nM for the second.

First: COc1cc(-c2ccc3cc(O)ccc3c2)ccc1C(=O)O [III-34, 4-(6-hydroxynaphthalen-2-yl)-2-methoxybenzoic acid]
Second: O=C(O)c1ccc(-c2cc(F)c3c(F)c(O)ccc3c2)cc1 [III-42, 4-(4,5-difluoro-6-hydroxynaphthalen-2-yl)benzoic acid]
The IC50 of the first is higher: 100 to 1000 nM for the first, < 100 nM for the second.

`O=C(O)c1ccc(-c2cc(F)c3c(F)c(O)ccc3c2)c(F)c1` [III-40, 4-(4,5-difluoro-6-hydroxynaphthalen-2-yl)-3-fluorobenzoic acid] and `Cc1cc(C(=O)O)ccc1-c1cc(F)c2c(F)c(O)ccc2c1` [III-41, 4-(4,5-difluoro-6-hydroxynaphthalen-2-yl)-3-methylbenzoic acid] cannot be ordered by IC50: < 100 nM for the first, < 100 nM for the second.

Compared with `COc1cc(C(=O)O)ccc1-c1cc(F)c2c(F)c(O)ccc2c1` [III-43, 4-(4,5-difluoro-6-hydroxynaphthalen-2-yl)-3-methoxybenzoic acid], `COCc1oc2cc(O)ccc2c(=O)c1-c1ccc(C(=O)O)cc1` [IV-2] is higher in IC50: < 100 nM for the first, 100 to 1000 nM for the second.

From patent US20140094465A1, “Compounds as S-Nitrosoglutathione Reductase Inhibitors” (N30 PHARMACEUTICALS, INC., priority 2011, published 2014)
